Measurements from article PMC9237828, “Chemically Tuning Resveratrol for the Effective Killing of Gram-Positive Pathogens” (Journal of Natural Products, 2022).

Columns and labels:
C. botulinum CECT551 = test: microbe, parasite or virus in culture; type: cell-based; settings: Table 1; 128 to 2 μM, RCM medium, anaerobic, 24 h
C. difficile CECT531 = test: microbe, parasite or virus in culture; type: cell-based, Clostridioides difficile
C. tetani CECT4629 = test: microbe, parasite or virus in culture; type: cell-based; settings: Table 1; 128 to 2 μM, RCM medium, anaerobic, 24 h
E. faecalis V583 = test: microbe, parasite or virus in culture; type: cell-based, Enterococcus faecalis
B. cereus ATCC10987 [1] = test: microbe, parasite or virus in culture; type: cell-based, Bacillus cereus
E. faecium LMG16003 = test: microbe, parasite or virus in culture; type: cell-based
C. perfringens CECT376 = test: microbe, parasite or virus in culture; type: cell-based
B. cereus ATCC14579 = test: microbe, parasite or virus in culture; type: cell-based, Bacillus cereus
E. faecium LMG11423 = test: microbe, parasite or virus in culture; type: cell-based
S.aureus LMG10147 = test: microbe, parasite or virus in culture; type: cell-based, Staphylococcus aureus
E. faecalis LMG16216 = test: microbe, parasite or virus in culture; type: cell-based, Enterococcus faecalis
C. ihumii AP5 = test: MIC test, anaerobes; type: cell-based; settings: Table 1, 128 to 2 μM, RCM medium, anaerobic, 24 h
Procedure: (§1) The resveratrol derivatives were serially diluted in cMHB (BD Difco) in 96-well microplates. Plates were then inoculated with the indicator bacteria at a final concentration of 5 × 10^5 CFU/mL and incubated at 37 °C for 20 h. In the case of the anaerobic bacteria (Clostridium and Clostridioides), the test was performed following the recommendation of CLSI for anaerobes[77] but using RCM medium instead of cMHB. The cultures were cultivated inside an anaerobic chamber at 37 °C for 24 h. All the tests were performed in triplicate.

C. beijerinckii B504 = test: MIC test, anaerobes; type: cell-based; settings: Table 1; 128 to 2 μM, RCM medium, anaerobic, 24 h
Procedure: as §1

E. faecalis LMG08222 = test: microbe, parasite or virus in culture; type: cell-based, Enterococcus faecalis
S.aureus LMG8224 = test: microbe, parasite or virus in culture; type: cell-based, Staphylococcus aureus
S.aureus LMG15975 = test: microbe, parasite or virus in culture; type: cell-based, Staphylococcus aureus
B. cereus ATCC10987 [2] = test: Intracellular ATP level quantification (BacTiter-Glo); settings: 32 μM of the compounds (100 μM for CCCP), 30, 60, and 120 min, 37 °C

## 3-butyl resveratrol [compound 9]
C. botulinum CECT551
  Minimal Inhibition Concentration (MIC) C. botulinum CECT551: 32 ± 0 µM
C. difficile CECT531
  Minimal Inhibition Concentration (MIC) C. difficile CECT531: 64 ± 0 µM
C. tetani CECT4629
  Minimal Inhibition Concentration (MIC) C. tetani CECT4629: 16 ± 0 µM
E. faecalis V583
  Minimal Inhibition Concentration (MIC) E. faecalis V583: 128 ± 0 µM
B. cereus ATCC10987 [1]
  Minimal Inhibition Concentration (MIC) B. cereus ATCC10987: 32 ± 0 µM
E. faecium LMG16003
  Minimal Inhibition Concentration (MIC) E. faecium LMG16003: 128 ± 0 µM
C. perfringens CECT376
  Minimal Inhibition Concentration (MIC) C. perfringens CECT376: 64 ± 0 µM
B. cereus ATCC14579
  Minimal Inhibition Concentration (MIC) B. cereus ATCC14579: 32 ± 0 µM
E. faecium LMG11423
  Minimal Inhibition Concentration (MIC) E. faecium LMG11423: 64 ± 0 µM
S.aureus LMG10147
  Minimal Inhibition Concentration (MIC) S.aureus LMG10147: 64 ± 0 µM
E. faecalis LMG16216
  Minimal Inhibition Concentration (MIC) E. faecalis LMG16216: 128 ± 0 µM
C. ihumii AP5
  Minimal Inhibition Concentration (MIC) C. ihumii AP5: 64 ± 0 µM
C. beijerinckii B504
  Minimal Inhibition Concentration (MIC) C. beijerinckii B504: 26.6 ± 5.3 µM
E. faecalis LMG08222
  Minimal Inhibition Concentration (MIC) E. faecalis LMG08222: 128 ± 0 µM
S.aureus LMG8224
  Minimal Inhibition Concentration (MIC) S.aureus LMG8224: 64 ± 0 µM
S.aureus LMG15975
  Minimal Inhibition Concentration (MIC) S.aureus LMG15975: 32 ± 0 µM

## 3-tert-Butyldimethylsilyl resveratrol [compound 16]
C. botulinum CECT551
  Minimal Inhibition Concentration (MIC) C. botulinum CECT551: 16 µM
C. difficile CECT531
  Minimal Inhibition Concentration (MIC) C. difficile CECT531: 26.6 ± 5.3 µM
C. tetani CECT4629
  Minimal Inhibition Concentration (MIC) C. tetani CECT4629: 6.6 ± 1.3 µM
E. faecalis V583
  Minimal Inhibition Concentration (MIC) E. faecalis V583: 16 ± 0 µM
B. cereus ATCC10987 [1]
  Minimal Inhibition Concentration (MIC) B. cereus ATCC10987: 16 ± 0 µM
E. faecium LMG16003
  Minimal Inhibition Concentration (MIC) E. faecium LMG16003: 16 ± 0 µM
C. perfringens CECT376
  Minimal Inhibition Concentration (MIC) C. perfringens CECT376: 32 µM
B. cereus ATCC14579
  Minimal Inhibition Concentration (MIC) B. cereus ATCC14579: 16 ± 0 µM
E. faecium LMG11423
  Minimal Inhibition Concentration (MIC) E. faecium LMG11423: 16 ± 0 µM
S.aureus LMG10147
  Minimal Inhibition Concentration (MIC) S.aureus LMG10147: 16 ± 0 µM
E. faecalis LMG16216
  Minimal Inhibition Concentration (MIC) E. faecalis LMG16216: 16 ± 0 µM
C. ihumii AP5; read-out: Minimal Inhibition Concentration (MIC) C. ihumii AP5
  MIC: 32 µM
C. beijerinckii B504
  Minimal Inhibition Concentration (MIC) C. beijerinckii B504: 26.6 ± 5.3 µM
MRC5 cells
  IC50: 2.7 ± 0.3 µM
E. faecalis LMG08222
  Minimal Inhibition Concentration (MIC) E. faecalis LMG08222: 8 ± 0 µM
S.aureus LMG8224
  Minimal Inhibition Concentration (MIC) S.aureus LMG8224: 16 ± 0 µM
S.aureus LMG15975
  Minimal Inhibition Concentration (MIC) S.aureus LMG15975: 16 ± 0 µM

## 3-triethylsilyl resveratrol [compound 20]
MRC5 cells
  IC50: 21.3 ± 5.9 µM

## N#CC(C#N)=NNc1cccc(Cl)c1 [CCCP, carbonyl cyanide m-chlorophenyl hydrazone]
B. cereus ATCC10987 [2]
  intracellular ATP levels: a time reduction of these levels was observed
